Tested on: Hartley male guinea pigs
Experiment: Blood cholesterol level lowering effect in guinea pigs, oral administration once a day for 14 days
Assay type: in vivo, guinea pig
Conditions: ezetimibe 3 mg/kg, oral once a day for 14 days, blood collected after 18 h fast; for Reduction ratio (%) of blood cholesterol level: vs control group
Method: The blood cholesterol level lowering effect when a calcium salt of pitavastatin and ezetimibe were coadministered was measured by the below-described testing method. For comparison, a calcium salt of atorvastatin was used instead of the calcium salt of pitavastatin and the effect brought about by the concomitant use of two medicaments was measured in a similar manner. • 1. Animals Provided for the Test and Their Breeding Environment
Six-week-old Hartley male guinea pigs (purchased from Nippon SLC) were provided for the test. Throughout the test period, they were bred in a breeding room maintained at a light-dark cycle (a light term by a room light: from 7:00 am to 7:00 pm), a temperature of 23 ±3° C. and a humidity of 55 ±15% and fed with a solid feedstuff (“RC-4”, product of Oriental Yeast Industry) and tap water ad libitum. • 2. Preparation of Medicament
Treatment method according to the invention: The calcium salt of pitavastatin and ezetimibe were suspended in a 0.5 wt. % aqueous solution of carboxymethylcellulose sodium (product of Iwai Chemicals Company) and their concentrations were adjusted to 1 mg/mL and 3 mg/mL, respectively. Since the calcium salt of pitavastatin contained 9.43 wt. % of water, 1.1 times the weight of the dosage was weighed for correction. The suspension was refrigerated (4° C.) in a light resistant bottle and adjustment was conducted every 7 days.
Treatment method for comparison: In a similar manner to that described above except the use of the calcium salt of atorvastatin instead of the calcium salt of pitavastatin, a medicament (atorvastatin calcium 5 mg/mL) for comparison test was prepared. • 3. Testing Method
The treatment method according to the present invention: Twenty four guinea pigs were classified into four groups (each consisting of 6 guinea pigs), that is, a control group, a single administration group of pitavastatin calcium salt (1 mg/kg), a single administration group of ezetimibe (3 mg/kg), and a coadministration group of pitavastatin calcium salt (1 mg/kg) and ezetimibe (3 mg/kg) so that they differ little in the total blood cholesterol level and blood triglyceride level. These two medicaments were each administered at a dose of 1 mL/kg once a day and this administration was repeated for 14 days. To the control group, a 0.5 wt. % aqueous solution (1 mL/kg) of carboxymethylcellulose sodium was orally administered. In each group, the guinea pigs were fasted for 18 hours after the final administration and then the blood was collected from them to measure the blood cholesterol level.
Treatment method for comparison: twenty four guinea pigs were tested in a similar manner to the method according to the invention. The dosage of the calcium salt of atorvastatin was 5 mg/kg in each of the group nourished by the single use of atorvastatin calcium salt and the group nourished by the concomitant use of atorvastatin calcium salt and ezetimibe. • 4. Static Analysis and Data Processing Method
Multigroup comparison between the control group and the medicament administered group was performed using Bartlett's variance analysis—Dunnett's multiple comparative assay. A difference with a significance level less than 5% was regarded as significant. • 5. Results
A reduction ratio (%) is a value represented by ((total blood cholesterol level of control group on average−total blood cholesterol level of each group on average)/(total blood cholesterol level of control group on average))×100, while a relative index is a value represented by (total blood cholesterol level of each group on average)/(total blood cholesterol level of control group on average).

[1] = Table 1 test: pitavastatin Ca 1 mg/kg
[2] = Table 2 comparison test: atorvastatin Ca 5 mg/kg

Row | SMILES | Relative index (total blood cholesterol level of group / control group) [1] | Reduction ratio (%) of blood cholesterol level [1] | Relative index (total blood cholesterol level of group / control group) [2] | Reduction ratio (%) of blood cholesterol level [2]
1 | O=C(O)C[C@H](O)C[C@H](O)/C=C/c1c(C2CC2)nc2ccccc2c1-c1ccc(F)cc1 [pitavastatin Ca, (3R,5S,6E)-7-[2-cyclopropyl-4-(4-fluorophenyl)-3-quinolyl]-3,5-dihydroxy-6-heptenoic acid] | 0.71 | 29% |  | 
2 | O=C1[C@H](CC[C@H](O)c2ccc(F)cc2)[C@@H](c2ccc(O)cc2)N1c1ccc(F)cc1 [ezetimibe, (3R,4S)-1-(4-fluorophenyl)-3-[(3S)-3-(4-fluorophenyl)-3-hydroxypropyl]-4-(4-hydroxyphenyl)-2-azetidinone] | 0.79 | 21% | 0.81 | 19%
3 | CC(C)c1c(C(=O)Nc2ccccc2)c(-c2ccccc2)c(-c2ccc(F)cc2)n1CC[C@@H](O)C[C@@H](O)CC(=O)O [atorvastatin Ca] |  |  | 0.77 | 23%

From US7459447B2, “Method for treating hyperlipidemia” (Kowa Co., Ltd., priority 2004, dated 2008)
